Source: US20230099344A1, “COMPOUNDS AND METHODS FOR THE TARGETED DEGRADATION OF IRAK-4” (Arvinas Operations, Inc., priority 2021, published 2023)

Assays:
Format in all cases: cell-based
IL6 [1] = assay: R848 stimulated IL6 inhibition assay in PBMC; conditions: human PBMCs, R848 stimulation, compound overnight, IL6 by MSD after 24 hrs; for IC50: read-out: R848 stim IL6 inhibition IC50; for Dmax: Homo sapiens, 24 h, read-out: R848 stim IL6 inhibition Dmax
In short: (§1)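 Read-out: MSD quantification of IL6 or IL8 in media collected 24 hrs after stimulation. Human PBMCs (2.0×10^6 cells/mL) received compound overnight before stimulant dosing at an EC50 concentration determined per donor.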

IRAK-4 = biological target: T1, IRAK-4 (Homo sapiens, UniProt Q9NWZ3); assay: IRAK-4 ELISA, PBMC degradation; parameters: endogenous in cells; host or cells: PBMC; conditions: treated overnight
T1 sequence (Q9NWZ3 1-460): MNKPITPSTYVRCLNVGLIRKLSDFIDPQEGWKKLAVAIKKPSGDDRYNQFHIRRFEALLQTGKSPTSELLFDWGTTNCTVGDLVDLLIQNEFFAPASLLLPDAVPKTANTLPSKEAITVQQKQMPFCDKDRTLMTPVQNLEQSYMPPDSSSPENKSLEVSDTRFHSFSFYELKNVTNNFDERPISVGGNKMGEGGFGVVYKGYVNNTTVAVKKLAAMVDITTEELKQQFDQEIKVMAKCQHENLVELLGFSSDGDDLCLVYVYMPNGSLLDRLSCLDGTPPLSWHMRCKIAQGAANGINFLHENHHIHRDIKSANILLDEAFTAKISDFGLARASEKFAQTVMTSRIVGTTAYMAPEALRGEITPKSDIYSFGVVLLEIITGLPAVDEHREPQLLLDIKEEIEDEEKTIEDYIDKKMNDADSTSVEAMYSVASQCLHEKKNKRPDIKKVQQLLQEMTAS
In short: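 OCI-Ly10 cells (1×10^6/ml) or PBMC (2×10^6/ml) treated with compound on the day of seeding and incubated overnight. IRAK-4 protein remaining in cell lysates quantified by sandwich ELISA.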

IL6 [2] = assay: LPS stimulated IL6 inhibition assay in PBMC; conditions: human PBMCs, LPS stimulation, compound overnight, IL6 by MSD after 24 hrs; for IC50: read-out: LPS stim IL6 inhibition IC50; for Dmax: read-out: LPS Stim IL6 inhibition Dmax
In short: as §1

Compound | IC50 (IL6 [1]) [nM] | DC50 (IRAK-4) [nM] | PBMC DC90 (IRAK-4) | PBMC Dmax (IRAK-4) | IC50 (IL6 [2]) [nM] | IC50 (IL6 [1]; PBMC) [nM] | Dmax (IRAK-4) [%] | IC50 (IL6 [2]; Homo sapiens, PBMC, 24 h) [nM] | R848 stim IL6 inhibition Dmax (IL6 [1]) | LPS Stim IL6 inhibition Dmax (IL6 [2]) | Dmax (IL6 [1]; PBMC) [%] | Dmax (IL6 [2]; Homo sapiens, PBMC, 24 h) [%]
O=C1CCC(NC(=O)c2ccc(N3CCC(CN4CCC(N5Cc6cc(NC(=O)c7cnn8cccnc78)c(OCC(F)F)cc6C5=O)CC4)CC3)cc2F)C(=O)N1 (centres unmarked) [Example 305] | – | 5 to 10 | C (C represents a DC90 value ≥25.0 nM and <50 nM) | – | – | 50 to 100 | 80 to 90 | 10 to 50 | – | – | < 70 | < 70
CC(C)(C1CN(c2ccc3c(c2)C(=O)N(C2CCC(=O)NC2=O)C3=O)C1)N1CCC(n2cc3cc(NC(=O)c4cnn5cccnc45)c(OCC4CC4)cc3n2)CC1 (centres unmarked) [Example 256] | – | < 1 | A (A represents a DC90 value <10.0 nM) | – | – | 10 to 50 | ≥ 90 | 10 to 50 | – | – | 80 to 90 | < 70
CN(CCN1CCN(c2ccc3c(c2)C(=O)N(C2CCC(=O)NC2=O)C3=O)CC1)[C@H]1CC[C@H](n2cc3cc(NC(=O)c4cnn5cccnc45)c(OCC4CC4)cc3n2)CC1 (some centres unmarked) [Example 359] | – | < 1 | A (A represents a DC90 value <10.0 nM) | – | – | < 10 | 80 to 90 | < 10 | – | – | ≥ 90 | 80 to 90
O=C1CCC(N2C(=O)c3ccc(N4CC[C@@H](N5CCC(n6cc7cc(NC(=O)c8cnn9cccnc89)c(OCC8CC8)cc7n6)CC5)C4)cc3C2=O)C(=O)N1 (some centres unmarked) [Example 224] | – | 1 to 5 | B (B represents a DC90 value ≥10.0 nM and <25.0 nM) | – | – | 10 to 50 | 80 to 90 | 10 to 50 | – | – | ≥ 90 | 80 to 90
O=C1CCC(NC(=O)c2cc(N3CC(CN4CCC(n5cc6cc(NC(=O)c7cnn8cccnc78)c(OCC7CC7)cc6n5)CC4)C3)ccc2F)C(=O)N1 (centres unmarked) [Example 306] | – | ≥ 10 | D (D represents a DC90 value ≥50 nM) | – | – | ≥ 100 | 70 to 80 | ≥ 100 | – | – | ≥ 90 | 70 to 80
CN(C1CN(c2ccc(C(=O)NC3CCC(=O)NC3=O)c(F)c2)C1)[C@H]1CC[C@H](n2cc3cc(NC(=O)c4cnn5cccnc45)c(OCC4CC4)cc3n2)CC1 (some centres unmarked) [Example 368] | – | 1 to 5 | A (A represents a DC90 value <10.0 nM) | – | – | 10 to 50 | ≥ 90 | 10 to 50 | – | – | ≥ 90 | 70 to 80
O=C1CCC(N2Cc3cc(N4CC(O[C@H]5CC[C@H](n6cc7cc(NC(=O)c8cnn9cccnc89)c(OCC8CC8)cc7n6)CC5)C4)ccc3C2=O)C(=O)N1 (some centres unmarked) [Example 423, N-[6-(cyclopropylmethoxy)-2-[(1r,4r)-4-({1-[2-(2,6-dioxopiperidin-3-yl)-1-oxo-2,3-dihydro-1H-isoindol-5-yl]azetidin-3-yl}oxy)cyclohexyl]-2H-indazol-5-yl]pyrazolo[1,5-a]pyrimidine-3-carboxamide] | – | 1 to 5 | B (B represents a DC90 value ≥10.0 nM and <25.0 nM) | – | – | 10 to 50 | ≥ 90 | 10 to 50 | – | – | ≥ 90 | 80 to 90
O=C1CCC(N2Cc3c(cccc3N3CC4(CCCN(C5CCC(n6cc7cc(NC(=O)c8cnn9cccnc89)c(OCC8CC8)cc7n6)CC5)C4)C3)C2=O)C(=O)N1 (centres unmarked) [Example 367] | – | ≥ 10 | D (D represents a DC90 value ≥50 nM) | – | – | 10 to 50 | 80 to 90 | 10 to 50 | – | – | ≥ 90 | 80 to 90
Cn1c(=O)n(C2CCC(=O)NC2=O)c2cccc(N3CC(N(C)[C@H]4CC[C@H](n5cc6cc(NC(=O)c7cnn8cccnc78)c(OCC7CC7)cc6n5)CC4)C3)c21 (some centres unmarked) [Example 346] | – | 1 to 5 | B (B represents a DC90 value ≥10.0 nM and <25.0 nM) | – | – | 10 to 50 | 80 to 90 | < 10 | – | – | ≥ 90 | 80 to 90
CC(C)Oc1nc2c(cc1NC(=O)c1cnn3cccnc13)CN(C1CCN(CC3CCN(c4ccc(C(=O)NC5CCC(=O)NC5=O)c(F)c4)CC3)CC1)C2=O (centres unmarked) [Example 309] | – | 1 to 5 | B (B represents a DC90 value ≥10.0 nM and <25.0 nM) | – | – | 10 to 50 | ≥ 90 | 10 to 50 | – | – | 80 to 90 | < 70
O=C1CCC(N2C(=O)c3ccc(N4CC5(C4)CN([C@H]4CC[C@H](n6cc7cc(NC(=O)c8cnn9cccnc89)c(OCC8CC8)cc7n6)CC4)C5)cc3C2=O)C(=O)N1 (some centres unmarked) [Example 360] | – | 1 to 5 | B (B represents a DC90 value ≥10.0 nM and <25.0 nM) | – | – | < 10 | ≥ 90 | < 10 | – | – | ≥ 90 | 80 to 90

More lines, main results first:

IC50 (IL6 [1]) [nM] | DC50 (IRAK-4) [nM] | PBMC DC90 (IRAK-4) | PBMC Dmax (IRAK-4) | IC50 (IL6 [2]) [nM] | IC50 (IL6 [1]; PBMC) [nM] | Dmax (IRAK-4) [%] | IC50 (IL6 [2]; Homo sapiens, PBMC, 24 h) [nM] | Compound | R848 stim IL6 inhibition Dmax (IL6 [1]) | LPS Stim IL6 inhibition Dmax (IL6 [2]) | Dmax (IL6 [1]; PBMC) [%] | Dmax (IL6 [2]; Homo sapiens, PBMC, 24 h) [%]
< 10 | < 1 | A (A represents a DC90 value <10.0 nM) | A (A represents a Dmax value ≥90) | < 10 | – | – | – | O=C1CCC(N2Cc3cc(N4CCC(CN5CCC(n6cc7cc(NC(=O)c8cnn9cccnc89)c(OCC(F)F)cc7n6)CC5)CC4)ccc3C2=O)C(=O)N1 (centres unmarked) [Example 156] | A (A represents a Ymax value ≥90) | C (C represents a Ymax value ≥70 and <80) | – | –
– | 1 to 5 | A (A represents a DC90 value <10.0 nM) | – | – | < 10 | ≥ 90 | 50 to 100 | CC(C)Oc1cc2c(cc1NC(=O)c1cnn3cccnc13)CN([C@H]1CC[C@H](N(C)C3CN(c4ccc5c(c4F)CN(C4CCC(=O)NC4=O)C5=O)C3)CC1)C2=O (some centres unmarked) [Example 364] | – | – | ≥ 90 | < 70
– | 1 to 5 | A (A represents a DC90 value <10.0 nM) | – | – | 10 to 50 | 80 to 90 | 10 to 50 | O=C1CCC(N2C(=O)c3ccc(N4CC(F)(CN5CCC(n6cc7cc(NC(=O)c8cnn9cccnc89)c(OCC(F)F)cc7n6)CC5)C4)cc3C2=O)C(=O)N1 (centres unmarked) [Example 231] | – | – | ≥ 90 | 80 to 90
– | < 1 | A (A represents a DC90 value <10.0 nM) | – | – | < 10 | 80 to 90 | < 10 | O=C1CCC(N2Cc3c(ccc(N4CCC(CN5CCC(n6cc7cc(NC(=O)c8cnn9cccnc89)c(OCC8CC8)cc7n6)CC5)CC4)c3F)C2=O)C(=O)N1 (centres unmarked) [Example 153] | – | – | 80 to 90 | ≥ 90
– | 1 to 5 | A (A represents a DC90 value <10.0 nM) | – | – | 10 to 50 | < 70 | 10 to 50 | O=C1CCC(N2C(=O)c3ccc(N4CCCC5(CN(CCN6CCC(n7cc8cc(NC(=O)c9cnn%10cccnc9%10)c(OCC9CC9)cc8n7)CC6)C5)C4)cc3C2=O)C(=O)N1 (centres unmarked) [Example 248] | – | – | ≥ 90 | < 70
– | < 1 | A (A represents a DC90 value <10.0 nM) | – | – | < 10 | 70 to 80 | < 10 | CN(CC1CCN(c2ccc3c(c2)C(=O)N(C2CCC(=O)NC2=O)C3=O)CC1)[C@H]1CC[C@H](n2cc3cc(NC(=O)c4cnn5cccnc45)c(OCC(F)F)cc3n2)CC1 (some centres unmarked) [Example 357] | – | – | ≥ 90 | ≥ 90
– | 1 to 5 | A (A represents a DC90 value <10.0 nM) | – | – | < 10 | ≥ 90 | < 10 | CC(C)Oc1cc2c(cc1NC(=O)c1cnn3cccnc13)CN([C@H]1CC[C@H](N3CC4(CN(c5ccc6c(c5)C(=O)N(C5CCC(=O)NC5=O)C6=O)C4)C3)CC1)C2=O (some centres unmarked) [Example 366] | – | – | ≥ 90 | 80 to 90
– | 1 to 5 | A (A represents a DC90 value <10.0 nM) | – | – | 10 to 50 | ≥ 90 | ≥ 100 | O=C1CCC(N2C(=O)c3ccc(N4CCC5(CC4)CN(CCN4CCC(n6cc7cc(NC(=O)c8cnn9cccnc89)c(OCC8CC8)cc7n6)CC4)C5)cc3C2=O)C(=O)N1 (centres unmarked) [Example 249] | – | – | 80 to 90 | < 70
– | 1 to 5 | A (A represents a DC90 value <10.0 nM) | – | – | < 10 | ≥ 90 | 10 to 50 | O=C1CCC(N2Cc3ccc(N4CCC(CN5CCC(N6Cc7cc(NC(=O)c8cnn9cccnc89)c(OCC(F)F)cc7C6=O)CC5)CC4)cc3C2=O)C(=O)N1 (centres unmarked) [Example 45] | – | – | ≥ 90 | 70 to 80
